Experimental data reported in ChEMBL document CHEMBL1135204, “Synthesis and muscarinic M2 subtype antagonistic activity of unnatural ent-himbacine and an enantiomeric pair of (2'S,6'R)-diepihimbacine” (Bioorg Med Chem Lett, 2002).

Columns and labels:
[1] = target: T1, Muscarinic acetylcholine receptor M2 (Rattus norvegicus, UniProt P10980); test: Binding affinity against the muscarinic M2 (brainstem) subtype was evaluated using [3H]quinuclidinyl benzilate; assay type: tissue-based
T1 sequence (P10980 whole entry): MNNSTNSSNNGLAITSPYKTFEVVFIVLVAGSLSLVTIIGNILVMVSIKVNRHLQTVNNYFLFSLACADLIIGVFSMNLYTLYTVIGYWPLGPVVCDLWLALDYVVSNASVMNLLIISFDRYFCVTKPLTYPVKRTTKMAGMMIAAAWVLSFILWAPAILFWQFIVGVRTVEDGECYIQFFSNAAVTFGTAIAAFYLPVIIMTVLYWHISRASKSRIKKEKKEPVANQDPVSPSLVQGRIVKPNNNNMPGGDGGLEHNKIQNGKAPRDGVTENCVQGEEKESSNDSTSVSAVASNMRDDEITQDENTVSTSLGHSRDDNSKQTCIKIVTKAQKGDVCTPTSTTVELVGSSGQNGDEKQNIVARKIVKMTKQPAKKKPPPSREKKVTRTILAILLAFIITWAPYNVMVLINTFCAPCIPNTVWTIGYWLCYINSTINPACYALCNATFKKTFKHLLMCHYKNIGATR

[2] = target: T2, Muscarinic acetylcholine receptor M1 (Rattus norvegicus, UniProt P08482); test: Binding affinity against the muscarinic M1 (cortex) subtype was evaluated using [3H]pirenzepine
T2 sequence (P08482 whole entry): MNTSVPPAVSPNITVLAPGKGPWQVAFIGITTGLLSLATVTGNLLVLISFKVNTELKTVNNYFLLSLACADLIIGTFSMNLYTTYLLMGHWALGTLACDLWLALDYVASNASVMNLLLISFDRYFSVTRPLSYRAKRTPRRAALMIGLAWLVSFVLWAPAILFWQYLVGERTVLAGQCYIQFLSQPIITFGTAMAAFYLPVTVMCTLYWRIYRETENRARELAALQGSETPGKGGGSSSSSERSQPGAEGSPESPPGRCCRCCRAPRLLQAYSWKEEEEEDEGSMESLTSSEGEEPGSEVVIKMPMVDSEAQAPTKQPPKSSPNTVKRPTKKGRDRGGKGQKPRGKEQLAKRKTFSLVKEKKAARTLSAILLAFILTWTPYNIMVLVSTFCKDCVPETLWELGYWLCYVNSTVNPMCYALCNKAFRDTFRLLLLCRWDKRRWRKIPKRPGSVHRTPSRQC

| Compound | Ki [1] | Ki [2] |
| --- | --- | --- |
| C[C@@H]1OC(=O)[C@H]2C[C@H]3CCCC[C@@H]3[C@@H](/C=C/[C@@H]3CCC[C@@H](C)N3C)[C@@H]12 | 200 nM | 316 nM |
| C[C@H]1OC(=O)[C@@H]2C[C@@H]3CCCC[C@H]3[C@H](/C=C/[C@H]3CCC[C@H](C)N3C)[C@H]12 | 200 nM | 316 nM |
| C[C@@H]1CCC[C@@H](/C=C/[C@H]2[C@@H]3CCCC[C@H]3C[C@H]3C(=O)O[C@H](C)[C@@H]23)N1C (single isomer, unassigned; ent-1) | 794 nM | 1000 nM |
| C[C@@H]1OC(=O)[C@H]2C[C@H]3CCCC[C@@H]3[C@@H](/C=C/[C@H]3CCC[C@H](C)N3C)[C@@H]12 [HIMBACINE] | 10 nM | 63.1 nM |
